Test results: ChEMBL document CHEMBL1201862, “PubChem BioAssay data set” (2004)
Calls of active or inactive are those of the source.

Key:
cells [1] = assay: cells
BJ [2] = assay: BJ-TERT fibroblast viability loss – cell-based, RAS-independent, luminescence, dose response (AID 1933); type: functional; settings: Homo sapiens
BJ [3] = assay: cells; type: functional, cell-based; settings: Homo sapiens
BJ [4] = assay: BJ-TERT-LT-ST fibroblast viability loss – cell-based, RAS-independent, luminescence, dose response (AID 1935); type: functional; settings: Homo sapiens;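 note: BJ fibroblasts immortalized with TERT plus LT and ST oncogenes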
[5] = DRD fibroblast viability loss – cell-based, non-viral oncogenic, luminescence, dose response (AID 1934); type: functional; settings: Homo sapiens
[6] = reduction of Shn3 3'UTR-driven luciferase in osteoblasts – cell-based, Clone20 osteoblasts, firefly luciferase, cherry-picked, dose response (AID 624132); type: functional;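 note: firefly luciferase luminescence from reporter carrying the Shn3 3'UTR in osteoblasts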
[7] = loss of viability in HepG2 cells – cell-based, CellTiter-Glo, cherry-picked, cytotoxicity control for Shn3 inhibitor project, dose response (AID 624134); type: functional
[8] = non-specific 3'UTR reporter inhibition in Clone20-Shn3RL – cell-based, Renilla luciferase, cherry-picked, counter-screen for Shn3 inhibitor project, dose response (AID 624133); type: functional
[9] = potency of ADAM10 substrate cleavage blockers – biochemical, QFRET, dose response (AID 743254);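 note: ADAM10 enzyme with the DM2 quenched FRET peptide as substrate; EDANS fluorescence gain as the protease cuts the substrate; inhibitor potency against ADAM10 proteolytic activity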
[10] = molecular target: Disintegrin and metalloproteinase domain-containing protein 17 (Homo sapiens, UniProt P78536); assay: inhibition of ADAM17 substrate cleavage – biochemical, quenched FRET substrate, counter-screen for ADAM10 exosite inhibitor project, dose response (AID 743253)
Nonstructural protein 1 = Nonstructural protein 1 (Influenza A virus, UniProt Q194T2); type: functional, Influenza A virus (A/California/07/2009(H1N1))
[11] = molecular target: Photoreceptor-specific nuclear receptor (Homo sapiens, UniProt Q9Y5X4); type: functional, cell-based;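 note: CHO-S cells with Gal4-NCOR and VP16-NR2E3 two-hybrid luciferase reporter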
[12] = viability loss in HeLa cells – cytotoxicity control for MgcRacGAP inhibitor project, dose response (AID 624300); type: functional
[13] = molecular target: T1, Rac GTPase-activating protein 1 (Homo sapiens, UniProt Q9H0H5); assay: blockers of MgcRacGAP-driven Rac1 GTP hydrolysis – biochemical, ADP Hunter fluorescence, primary and confirmatory, confirmation (AID 624330); type: functional
T1 sequence (Q9H0H5 whole entry): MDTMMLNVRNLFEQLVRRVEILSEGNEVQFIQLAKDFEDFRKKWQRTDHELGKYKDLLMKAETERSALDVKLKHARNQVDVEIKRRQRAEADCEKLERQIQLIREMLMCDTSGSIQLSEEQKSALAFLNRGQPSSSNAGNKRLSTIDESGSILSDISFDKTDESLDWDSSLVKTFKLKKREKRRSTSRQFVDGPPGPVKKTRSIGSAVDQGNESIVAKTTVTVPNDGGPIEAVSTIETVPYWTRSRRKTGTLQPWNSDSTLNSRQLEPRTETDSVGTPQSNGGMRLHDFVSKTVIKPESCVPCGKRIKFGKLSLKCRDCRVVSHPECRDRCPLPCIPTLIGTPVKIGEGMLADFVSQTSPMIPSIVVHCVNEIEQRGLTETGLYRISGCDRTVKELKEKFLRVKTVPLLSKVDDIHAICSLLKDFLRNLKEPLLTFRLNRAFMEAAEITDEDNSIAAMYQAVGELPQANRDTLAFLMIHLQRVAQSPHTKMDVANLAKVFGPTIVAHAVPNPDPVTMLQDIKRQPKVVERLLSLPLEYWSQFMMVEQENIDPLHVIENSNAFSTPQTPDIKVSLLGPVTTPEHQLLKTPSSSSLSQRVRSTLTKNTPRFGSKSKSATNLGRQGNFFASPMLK

[14] = molecular target: T2, DNA repair protein RAD52 homolog (Homo sapiens, UniProt P43351); type: functional, biochemical
T2 sequence (P43351 whole entry): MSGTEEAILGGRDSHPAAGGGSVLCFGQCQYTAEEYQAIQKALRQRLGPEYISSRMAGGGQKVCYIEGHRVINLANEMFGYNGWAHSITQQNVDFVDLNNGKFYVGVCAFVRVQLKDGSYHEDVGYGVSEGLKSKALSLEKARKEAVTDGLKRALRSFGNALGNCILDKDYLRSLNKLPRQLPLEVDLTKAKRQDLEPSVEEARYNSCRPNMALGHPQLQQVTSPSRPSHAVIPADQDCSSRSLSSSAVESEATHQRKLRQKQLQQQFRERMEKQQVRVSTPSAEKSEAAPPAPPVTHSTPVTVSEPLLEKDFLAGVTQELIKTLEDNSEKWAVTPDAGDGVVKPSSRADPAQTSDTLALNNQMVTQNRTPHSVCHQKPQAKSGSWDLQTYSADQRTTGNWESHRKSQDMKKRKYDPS

[15] = HGIII-sPLA2 enzyme inhibition potency – biochemical, QFRET, IC50, dose response (AID 743457);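 note: green fluorescence rise as the enzyme cleaves BODIPY PC-A2 in liposomes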
cells [16] = settings: A549
Paired box protein Pax-8 = Paired box protein Pax-8 (Homo sapiens, UniProt Q06710); assay: PAX8 transcriptional activity inhibition in RMG-I – RMG-I cells, luciferase, cherry-pick, dose response (AID 687027); type: functional, cell-based;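 note: luciferase reporter driven by Pax8 target thyroperoxidase promoter measured by SteadyGlo luminescence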
[17] = A2780 cell killing – plate reader, dry powder samples, cytotoxicity control, dose response (AID 743046); type: functional, cell-based
[18] = toxicity toward immortalized ovarian surface epithelium – cell-based, plate reader, dry powder samples, cytotoxicity control for PAX8 inhibitor project, dose response (AID 743045); type: functional
[19] = OVCAR-3 cell viability loss – plate reader, dry powder samples, PAX8 inhibitor project, dose response (AID 743044); type: functional, cell-based
[20] = general cell-killing toxicity readout – plate reader, dry powder samples, cytotoxicity control for PAX8 inhibitor project, dose response (AID 743021); type: functional, cell-based
[21] = OVCAR8 cell viability loss – plate reader, dry powder samples, PAX8 project, dose response (AID 743197); type: functional, cell-based; settings: OVCAR-8
[22] = HeLa cell viability loss – plate reader, dry powder, cytotoxicity control, dose response (AID 651946); type: functional, cell-based
[23] = Late stage assay provider results from the probe development effort to identify inhibitors of the Plasmodium falciparum M18 Aspartyl Aminopeptidase (M18AAP): radiolabel-based cell-based dose response assay to identify compounds that inhibit P. falciparum growth in RBCs, Set 2..; type: functional
[24] = MITF Orthogonal Assay: SK-MEL-5 CTG Assay Measured in Cell-Based System Using Plate Reader - 2084-02_Inhibitor_Dose_DryPowder_Activity_Set7.; type: functional
[25] = MITF: Counter assay: A375 proliferation Measured in Cell-Based System Using Plate Reader - 2084-03_Inhibitor_Dose_DryPowder_Activity_Set8.; type: functional; settings: A-375
[26] = inhibitors of TRPM1-promoter reporter in SK-MEL-5 – cell-based, luciferase, dry powder, set 8, MITF inhibitor project, dose response (AID 624430); type: functional
[27] = IGROV1 cell killing – plate reader, dry powder samples, PAX8 inhibitor project, dose response (AID 743043); type: functional, cell-based; settings: IGROV-1
[28] = COV434 cell viability loss – plate reader, dry powder, SA7, cytotoxicity control for PAX8 inhibitor project, dose response (AID 743145); type: functional, cell-based
[29] = OV-90 cell viability loss – plate reader, dry powder, SA8, PAX8 inhibitor project, dose response (AID 743149); type: functional, cell-based
[30] = PAX8-dependent cell viability loss – plate reader, dry powder, dose response (AID 743049); type: functional, cell-based
[31] = viability of BHK-21 cells – cell-based, secondary screen, cytotoxicity control for flavivirus guanylyltransferase probe project (AID 624078); type: functional
[32] = molecular target: Protein disulfide-isomerase (Homo sapiens, UniProt P07237); assay: inhibition of PDI-mediated insulin reduction – biochemical, turbidity, dry powder samples, set 2, confirmation (AID 652146)
Protein disulfide-isomerase, sequence (P07237 whole entry): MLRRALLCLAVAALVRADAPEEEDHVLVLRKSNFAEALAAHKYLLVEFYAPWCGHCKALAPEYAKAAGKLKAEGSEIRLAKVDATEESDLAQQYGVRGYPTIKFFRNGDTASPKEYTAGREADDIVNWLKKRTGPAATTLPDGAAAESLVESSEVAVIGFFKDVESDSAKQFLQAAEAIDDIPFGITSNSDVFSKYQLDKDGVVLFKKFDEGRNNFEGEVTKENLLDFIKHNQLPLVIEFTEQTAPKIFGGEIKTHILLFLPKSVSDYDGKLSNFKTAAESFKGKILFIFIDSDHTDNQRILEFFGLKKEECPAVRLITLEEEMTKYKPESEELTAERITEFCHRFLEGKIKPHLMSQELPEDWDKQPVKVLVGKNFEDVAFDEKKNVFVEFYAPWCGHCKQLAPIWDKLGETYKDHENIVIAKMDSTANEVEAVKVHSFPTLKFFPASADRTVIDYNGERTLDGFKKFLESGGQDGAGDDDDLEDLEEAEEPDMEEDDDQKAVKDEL

Paired box protein Pax-8, sequence (Q06710 whole entry): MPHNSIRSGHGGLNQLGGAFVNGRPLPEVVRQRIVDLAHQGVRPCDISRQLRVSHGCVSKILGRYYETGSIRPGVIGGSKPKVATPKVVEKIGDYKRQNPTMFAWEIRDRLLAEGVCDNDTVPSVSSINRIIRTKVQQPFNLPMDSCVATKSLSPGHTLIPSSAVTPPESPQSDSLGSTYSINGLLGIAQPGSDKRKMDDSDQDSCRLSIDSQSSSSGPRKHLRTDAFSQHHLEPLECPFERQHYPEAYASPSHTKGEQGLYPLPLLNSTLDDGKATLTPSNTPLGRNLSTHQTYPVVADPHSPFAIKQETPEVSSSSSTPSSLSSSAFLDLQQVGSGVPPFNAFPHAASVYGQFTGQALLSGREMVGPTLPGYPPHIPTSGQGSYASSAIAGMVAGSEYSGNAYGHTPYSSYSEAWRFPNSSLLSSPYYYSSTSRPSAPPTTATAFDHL
Nonstructural protein 1, sequence (Q194T2 whole entry, the tested form may be a part): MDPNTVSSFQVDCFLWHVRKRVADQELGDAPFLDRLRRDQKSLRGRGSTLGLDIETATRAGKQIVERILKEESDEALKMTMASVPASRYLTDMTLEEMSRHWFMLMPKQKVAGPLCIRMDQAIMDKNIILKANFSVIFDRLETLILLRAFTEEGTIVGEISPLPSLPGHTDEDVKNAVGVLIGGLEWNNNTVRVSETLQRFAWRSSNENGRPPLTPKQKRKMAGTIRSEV
Photoreceptor-specific nuclear receptor, sequence (Q9Y5X4 whole entry, the tested form may be a part): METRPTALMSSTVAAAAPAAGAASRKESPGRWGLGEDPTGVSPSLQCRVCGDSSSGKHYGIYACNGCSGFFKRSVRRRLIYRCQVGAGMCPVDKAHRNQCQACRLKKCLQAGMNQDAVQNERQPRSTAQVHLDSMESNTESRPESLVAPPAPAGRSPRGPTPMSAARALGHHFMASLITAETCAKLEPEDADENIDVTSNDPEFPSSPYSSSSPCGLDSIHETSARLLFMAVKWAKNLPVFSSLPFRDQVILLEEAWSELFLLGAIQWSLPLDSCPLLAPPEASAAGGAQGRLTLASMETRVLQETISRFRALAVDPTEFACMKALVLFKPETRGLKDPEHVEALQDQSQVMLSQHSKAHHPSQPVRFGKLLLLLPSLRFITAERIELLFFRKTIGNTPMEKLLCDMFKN
Disintegrin and metalloproteinase domain-containing protein 17, sequence (P78536 whole entry, the tested form may be a part): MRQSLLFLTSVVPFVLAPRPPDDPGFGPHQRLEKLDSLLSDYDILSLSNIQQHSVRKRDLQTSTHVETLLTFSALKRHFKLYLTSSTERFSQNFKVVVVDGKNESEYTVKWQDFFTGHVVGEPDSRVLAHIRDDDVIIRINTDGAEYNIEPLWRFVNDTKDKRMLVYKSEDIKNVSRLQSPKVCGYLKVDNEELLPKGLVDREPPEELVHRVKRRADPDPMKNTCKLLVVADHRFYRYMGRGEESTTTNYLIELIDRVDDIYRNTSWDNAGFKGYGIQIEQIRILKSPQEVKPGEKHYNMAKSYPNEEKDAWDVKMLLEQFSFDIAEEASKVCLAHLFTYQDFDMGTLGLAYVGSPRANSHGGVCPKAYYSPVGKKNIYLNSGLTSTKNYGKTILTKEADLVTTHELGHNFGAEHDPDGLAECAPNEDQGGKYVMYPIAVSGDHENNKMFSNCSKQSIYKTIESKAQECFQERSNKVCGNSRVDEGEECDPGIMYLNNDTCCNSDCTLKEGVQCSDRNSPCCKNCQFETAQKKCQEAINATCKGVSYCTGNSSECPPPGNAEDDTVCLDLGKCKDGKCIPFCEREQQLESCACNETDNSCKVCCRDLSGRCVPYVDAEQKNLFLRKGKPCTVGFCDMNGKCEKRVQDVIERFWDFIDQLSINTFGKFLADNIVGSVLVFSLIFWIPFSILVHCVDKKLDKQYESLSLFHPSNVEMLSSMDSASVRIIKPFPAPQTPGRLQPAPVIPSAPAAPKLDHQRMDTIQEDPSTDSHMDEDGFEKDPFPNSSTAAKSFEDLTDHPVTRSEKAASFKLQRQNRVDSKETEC

## Cc1cccn2c(=O)c(/C=C(\C#N)C(=O)NC3CCS(=O)(=O)C3)c(N3CCC(C(N)=O)CC3)nc12 (stereo unspecified)
Cells [1]
  AC50: 4.38 µM (active)

## COc1ccc(C)c2sc(N(CCCN(C)C)C(=O)c3ccc(S(=O)(=O)N4CCc5ccccc5C4)cc3)nc12
BJ [2]
  EC50: 1.48 µM (inconclusive)
BJ [3]
  EC50: 5.65 µM (active)
BJ [4]
  EC50: 2.13 µM (inconclusive)
[5]
  EC50: 4.25 µM (active)
[6]
  AC50: 4.4 µM (active)
[7]
  AC50: 2.98 µM (active)
[8]
  AC50: 5.51 µM (active)
[9]
  IC50: > 69.5 µM (inactive)
[10]
  IC50: > 69.5 µM (inactive)

## CN(C)c1ccc(/C=C/c2cc[n+](C)c3ccccc23)cc1
Nonstructural protein 1
  IC50: 10.6 µM (active)
[11]
  IC50: 7.07 µM (active)
[12]
  CC50: 54.1 µM (active)
[13]
  IC50: 38.5 µM (active)
[14]
  AC50: 1.23 µM (active)
[15]
  IC50: 30.1 µM (inactive)

## CC(=O)c1cccc(-c2ccnc3c2CC(C(=O)NCc2ccc(F)c(F)c2)O3)c1 (stereo unspecified)
Cells [16]
  AC50: 3.92 µM (active)

## C[C@H]1CCCCO[C@H](CN(C)S(=O)(=O)c2ccc(Cl)cc2)[C@@H](C)CN([C@@H](C)CO)C(=O)c2cc(NS(=O)(=O)c3ccc(F)cc3)ccc2O1
Paired box protein Pax-8
  AC50: 8.27 µM (active)
[17]
  AC50: 58.4 µM (active)

## Cc1ccc(S(=O)(=O)Nc2ccc3c(c2)C(=O)N([C@H](C)CO)C[C@H](C)[C@H](CN(C)Cc2ccc(C(F)(F)F)cc2)OCCCC[C@H](C)O3)cc1
Paired box protein Pax-8
  AC50: 9.98 µM (active)
[18]
  AC50: 46.2 µM (active)
[19]
  AC50: 19.4 µM (active)
[20]
  AC50: 41.7 µM (active)
[21]
  AC50: 24.7 µM (active)

## N#Cc1cccc(CSc2nnc(-c3ccccc3)o2)c1
[22]
  AC50: > 52 µM (inactive)

## Oc1ccc(CCNc2c3c(nc4ccccc24)CCCC3)cc1O
[23]
  IC50: 3.6 µM (active)

## Cc1cccc(NC2=CC(=O)c3ccccc3C2=O)c1
[24]
  AC50: 660 nM (active)
[25]
  AC50: > 70 µM (inactive)
[26]
  AC50: 18.9 µM (active)

## N#C[C@H]1N[C@H](CO)[C@@H]1c1ccc(C#Cc2ccccc2F)cc1
[19]
  AC50: 49.8 µM (active)
[27]
  AC50: 45.2 µM (active)
[28]
  AC50: > 70 µM (inactive)
[29]
  AC50: > 70 µM (inactive)
[30]
  AC50: 30.1 µM (active)

## O=S(=O)(Nc1cc(Cl)c(O)c2ccccc12)c1ccc(F)cc1
[31]
  CC50: 12.5 µM (active)

## CCOC(=O)C1(CCOc2ccccc2)CCN(Cc2ccc3[nH]c(=O)oc3c2)CC1
[32]
  AC50: > 30 µM (inactive)
